How the values were obtained:
[1] = tested on: intestinal transport of certain nutrients; conditions: cited from earlier work
IGF-1 response = conditions: certain cell studies; cited from earlier work
[2] = tested on: adrenocorticotropin (ACTH) and cortisol response; conditions: intravenous infusion; cited from earlier work
[3] = tested on: lean skeletal muscle mass; conditions: peroral, humans, clinical study by the inventor

Row | Substance | increasing lean skeletal muscle mass [3] | also measured
1 | Lysophosphatidylcholine |  | intestinal transport of certain nutrients [1]: increases
2 | Phosphatidylcholine |  | IGF-1 response (IGF-1 response): exert an IGF-1 response
3 | Phosphatidylserine |  | adrenocorticotropin (ACTH) and cortisol response to stressful exercise [2]: significantly suppresses
4 | lysophosphatidylcholine arachidonic acid | effective | 
5 | phosphatidylcholine arachidonic acid | effective | 
6 | phosphatidylserine arachidonic acid | effective | 

— patent publication US7199112B2, “Use of phospholipid arachidonic acids for increasing muscle mass in humans” (priority 2005, dated 2007)
